Measurements taken from patent US20240122214A1, “COMPOSITIONS, METHOD OF MAKING AND METHOD OF USE THEREOF” (EPC NATURAL PRODUCTS CO., LTD, priority 2014, published 2024).
Like-named read-outs stand apart in the source and are kept apart here.

Key:
Caco-2 cell layers = experiment: Caco-2 barrier integrity: TEER and xylitol passage (Example 2); format: cell-based, Human; details: 1 g/L xylitol reference
[1] = test system: glucose transport across the Caco-2 cell monolayer; experiment: Glucose transport assay in Caco-2 trans-well model (Example 2); format: cell-based, Human; details: 0-3 h, result in words
[2] = test system: glucose transport across the Caco-2 cell monolayer; experiment: Glucose transport assay in Caco-2 trans-well model (Example 1); format: cell-based; details: Homo sapiens, 13.5 g/L glucose apical, phloretin 100 mg/L, read-out: Glucose transport compared to untreated control [% of control]
[3] = depends on the tested concentration compared with sucrose; cited from earlier work

xylitol permeability of treated cell layers (Caco-2 cell layers) | Compound | inhibitory effect on glucose transport [1] | activity at 100 µg/mL ([2]; 0.5 h) [%] | activity at 100 µg/mL ([2]; 1.0 h) [%] | times sweeter than sucrose [3]
highest | O=C(CCc1ccc(O)cc1)c1c(O)cc(O)cc1O [Phloretin, phloretin] | strongly reduced glucose absorption | 36 | 54 | 
 | O=S(=O)([O-])NC1CCCCC1.[Na+] [sodium cyclamate] |  |  |  | about 30 times
 | OC[C@H]1O[C@H](O[C@]2(CCl)O[C@H](CCl)[C@@H](O)[C@@H]2O)[C@H](O)[C@@H](O)[C@H]1Cl [sucralose] |  |  |  | about 600 times
 | thaumatin |  |  |  | about 2000 times
